Results taken from patent US9169270B2, “1-phenyl-substituted heterocyclyl derivatives and their use as prostaglandin D2 receptor modulators” (Actelion Pharmaceuticals Ltd., priority 2012, dated 2015).

target: hCRTH2 receptor (Homo sapiens (Human), UniProt Q9Y5Y4); experiment: hCRTH2 receptor membranes radioligand (3H-PGD2) displacement assay; settings: hCRTH2 membrane fragments, Binding-Buffer with 0.1% BSA
Procedure, shortened: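 Membranes from HEK293 cells expressing recombinant hCRTH2 (20 μg/well) incubated with compound and ³H-PGD2 for 90 min at room temperature in Tris buffer pH 7.0 with NaCl, EDTA, 0.1% BSA, 10 mM MnCl2. Bound radioactivity collected on PEI-treated GF/C filters and counted; non-specific binding defined with excess PGD2.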

Sequence of hCRTH2 receptor (Q9Y5Y4 whole entry, the tested form may be a part): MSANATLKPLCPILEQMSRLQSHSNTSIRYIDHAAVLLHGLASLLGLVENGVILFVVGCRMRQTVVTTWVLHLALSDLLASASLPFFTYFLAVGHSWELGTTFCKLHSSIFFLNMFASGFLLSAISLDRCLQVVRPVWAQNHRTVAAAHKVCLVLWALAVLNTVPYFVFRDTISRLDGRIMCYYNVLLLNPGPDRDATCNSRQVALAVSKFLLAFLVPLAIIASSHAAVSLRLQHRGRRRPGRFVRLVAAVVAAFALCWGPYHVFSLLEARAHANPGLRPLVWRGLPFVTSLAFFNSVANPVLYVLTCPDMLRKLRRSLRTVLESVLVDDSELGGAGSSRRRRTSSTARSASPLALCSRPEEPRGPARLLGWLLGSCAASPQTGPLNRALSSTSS

Row | Compound | IC50
1 | CCC(C)(C)COC(=O)N1CCc2ncsc2[C@H]1c1cc(Cl)ccc1OCC(=O)O [Example 60, (R)-4-(2-Carboxymethoxy-5-chloro-phenyl)-6,7-dihydro-4H-thiazolo[5,4-c]pyridine-5-carboxylic acid 2,2-dimethyl-butyl ester] | 2 nM
2 | COC(C)(C)CCOC(=O)N1CCc2ncsc2[C@H]1c1cc(Cl)ccc1OCC(=O)O [Example 62, (R)-4-(2-Carboxymethoxy-5-chloro-phenyl)-6,7-dihydro-4H-thiazolo[5,4-c]pyridine-5-carboxylic acid 3-methoxy-3-methyl-butyl ester] | 4.8 nM
3 | CC(C)(C)CCOC(=O)N1CCc2ncsc2[C@H]1c1cc(Cl)ccc1OCC(=O)O [Example 65, (R)-4-(2-Carboxymethoxy-5-chloro-phenyl)-6,7-dihydro-4H-thiazolo[5,4-c]pyridine-5-carboxylic acid 3,3-dimethyl-butyl ester] | 1.3 nM
4 | O=C(O)COc1ccc(Cl)cc1[C@@H]1c2scnc2CCN1C(=O)OCC1CCC1 [Example 69, (R)-4-(2-Carboxymethoxy-5-chloro-phenyl)-6,7-dihydro-4H-thiazolo[5,4-c]pyridine-5-carboxylic acid cyclobutylmethyl ester] | 4.2 nM
5 | Cc1cccc(COC(=O)N2CCc3ncsc3[C@H]2c2cc(Cl)ccc2OCC(=O)O)c1C [Example 72, (R)-4-(2-Carboxymethoxy-5-chloro-phenyl)-6,7-dihydro-4H-thiazolo[5,4-c]pyridine-5-carboxylic acid 2,3-dimethyl-benzyl ester] | 1.2 nM
6 | O=C(O)COc1ccc(Cl)cc1[C@@H]1c2scnc2CCN1C(=O)OCCCF [Example 74, (R)-4-(2-Carboxymethoxy-5-chloro-phenyl)-6,7-dihydro-4H-thiazolo[5,4-c]pyridine-5-carboxylic acid 3-fluoro-propyl ester] | 1.4 nM

Now from value to molecule:

Row | IC50 | Compound
7 | 1 nM | O=C(O)COc1ccc(Cl)cc1[C@@H]1c2scnc2CCN1C(=O)OCc1cc(F)ccc1F [Example 58, (R)-4-(2-Carboxymethoxy-5-chloro-phenyl)-6,7-dihydro-4H-thiazolo[5,4-c]pyridine-5-carboxylic acid 2,5-difluoro-benzyl ester]
8 | 1.2 nM | O=C(O)COc1ccc(Cl)cc1[C@@H]1c2scnc2CCN1C(=O)OCc1ccc(F)cc1 [Example 61, (R)-4-(2-Carboxymethoxy-5-chloro-phenyl)-6,7-dihydro-4H-thiazolo[5,4-c]pyridine-5-carboxylic acid 4-fluoro-benzyl ester]
9 | 0.9 nM | Cc1ccc(COC(=O)N2CCc3ncsc3[C@H]2c2cc(Cl)ccc2OCC(=O)O)c(C)c1 [Example 63, (R)-4-(2-Carboxymethoxy-5-chloro-phenyl)-6,7-dihydro-4H-thiazolo[5,4-c]pyridine-5-carboxylic acid 2,4-dimethyl-benzyl ester]
10 | 0.3 nM | O=C(O)COc1ccc(Cl)cc1[C@@H]1c2scnc2CCN1C(=O)OCc1cc(F)ccc1Cl [Example 64, (R)-4-(2-Carboxymethoxy-5-chloro-phenyl)-6,7-dihydro-4H-thiazolo[5,4-c]pyridine-5-carboxylic acid 2-chloro-5-fluoro-benzyl ester]
11 | 0.4 nM | CC(C)CCOC(=O)N1CCc2ncsc2[C@H]1c1cc(Cl)ccc1OCC(=O)O [Example 67, (R)-4-(2-Carboxymethoxy-5-chloro-phenyl)-6,7-dihydro-4H-thiazolo[5,4-c]pyridine-5-carboxylic acid 3-methyl-butyl ester]
12 | 0.5 nM | O=C(O)COc1ccc(Cl)cc1[C@@H]1c2scnc2CCN1C(=O)OCc1cccc(F)c1F [Example 71, (R)-4-(2-Carboxymethoxy-5-chloro-phenyl)-6,7-dihydro-4H-thiazolo[5,4-c]pyridine-5-carboxylic acid 2,3-difluoro-benzyl ester]
13 | 0.6 nM | O=C(O)COc1ccc(Cl)cc1[C@@H]1c2scnc2CCN1C(=O)OCc1ccccc1F [Example 75, (R)-4-(2-Carboxymethoxy-5-chloro-phenyl)-6,7-dihydro-4H-thiazolo[5,4-c]pyridine-5-carboxylic acid 2-fluoro-benzyl ester]
